Results: PubChem BioAssay AID2060908 (Molecular Pharmacology Branch, DTP, NCI, 2025)

System: 186277-243-T-J2-PDC complex spheroids, viability
Assay: Anticancer human tumor 186277-243-T-J2-PDC patient-derived colon adenocarcinoma cell line growth inhibition [RAS]
Conditions: for IC50: curve of first compound; for viability, T/C: stronger effect = lower value
How it was run: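 Agents were tested in combination matrices in half-log decrements from a top concentration at or near clinical Cmax (10 microM if undetermined). Targets were multi-cell spheroids of tumour lines plus HUVEC and MSC stromal cells.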

[1] = second compound 0.000949 µM, first compound 0.00316 µM
[2] = second compound 0.000949 µM, first compound 0.01 µM
[3] = second compound 0.000949 µM, first compound 0.0316 µM
[4] = second compound 0.000949 µM, first compound 0.1 µM
[5] = second compound 0.003 µM, first compound 0.00316 µM
[6] = second compound 0.003 µM, first compound 0.01 µM
[7] = second compound 0.003 µM, first compound 0.0316 µM
[8] = second compound 0.003 µM, first compound 0.1 µM
[9] = second compound 0.00949 µM, first compound 0.00316 µM
[10] = second compound 0.00949 µM, first compound 0.01 µM
[11] = second compound 0.00949 µM, first compound 0.0316 µM
[12] = second compound 0.00949 µM, first compound 0.1 µM
[13] = second compound 0.03 µM, first compound 0.00316 µM
[14] = second compound 0.03 µM, first compound 0.01 µM
[15] = second compound 0.03 µM, first compound 0.0316 µM
[16] = second compound 0.03 µM, first compound 0.1 µM
[17] = second compound 0.0949 µM, first compound 0.00316 µM
[18] = second compound 0.0949 µM, first compound 0.01 µM
[19] = second compound 0.0949 µM, first compound 0.0316 µM
[20] = second compound 0.0949 µM, first compound 0.1 µM
[21] = second compound 0.3 µM, first compound 0.00316 µM
[22] = second compound 0.3 µM, first compound 0.01 µM
[23] = second compound 0.3 µM, first compound 0.0316 µM
[24] = second compound 0.3 µM, first compound 0.1 µM
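Note: spheroids exposed to compounds for 7 days before viability read.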

`CC(C)n1nc(-c2ccc3oc(N)nc3c2)c2c(N)ncnc21` + CCn1c(-c2cccnc2C(C)OC)c2c3cc(ccc31)N1CCOC(CC(NC(=O)C(C(C)C)N(C)C(=O)C3(F)CCN(C(=O)C#CC(C)(C)N(C)C)CC3)C(=O)N3CCCC(N3)C(=O)OCC(C)(C)C2)C1 showed an IC50 (second compound 0.000949 µM) of 60.3 nM, an IC50 (second compound 0.003 µM) of 76 nM and an IC50 (second compound 0.00949 µM) of 59 nM. It also gave an IC50 (second compound 0.03 µM) of 56.9 nM, an IC50 (second compound 0.0949 µM) of 41.2 nM and an IC50 (second compound 0.3 µM) of 24.9 nM. The viability, T/C (second compound 0.000949 µM, first compound 0.000316 µM) was 115%, the viability, T/C (second compound 0.000949 µM, first compound 0.001 µM) was 98.1% and the viability, T/C [1] was 98.5%. It also gave a viability, T/C [2] of 100%, a viability, T/C [3] of 70.6% and a viability, T/C [4] of 33.7%. It also gave a viability, T/C (second compound 0.003 µM, first compound 0.000316 µM) of 88%, a viability, T/C (second compound 0.003 µM, first compound 0.001 µM) of 99% and a viability, T/C [5] of 97.1%. It also gave a viability, T/C [6] of 92.2%, a viability, T/C [7] of 79.6% and a viability, T/C [8] of 40.5%. For the same compound, the viability, T/C (second compound 0.00949 µM, first compound 0.000316 µM) was 90.1%, the viability, T/C (second compound 0.00949 µM, first compound 0.001 µM) was 115% and the viability, T/C [9] was 93%. For the same compound, the viability, T/C [10] was 94.1%, the viability, T/C [11] was 69.3% and the viability, T/C [12] was 33.6%. For the same compound, the viability, T/C (second compound 0.03 µM, first compound 0.000316 µM) was 106%, the viability, T/C (second compound 0.03 µM, first compound 0.001 µM) was 107% and the viability, T/C [13] was 92.7%. It also gave a viability, T/C [14] of 90.2%, a viability, T/C [15] of 70.3% and a viability, T/C [16] of 31.2%. It also gave a viability, T/C (second compound 0.0949 µM, first compound 0.000316 µM) of 103%, a viability, T/C (second compound 0.0949 µM, first compound 0.001 µM) of 98.4% and a viability, T/C [17] of 105%. For the same compound, the viability, T/C [18] was 95.4%, the viability, T/C [19] was 55.8% and the viability, T/C [20] was 31%. The viability, T/C (second compound 0.3 µM, first compound 0.000316 µM) was 101%, the viability, T/C (second compound 0.3 µM, first compound 0.001 µM) was 100% and the viability, T/C [21] was 91.7%. It also gave a viability, T/C [22] of 72.5%, a viability, T/C [23] of 44.3% and a viability, T/C [24] of 21.3%.
`O=C(c1ccc(F)c(F)c1Nc1ccc(I)cc1F)N1CC(O)([C@@H]2CCCCN2)C1` + CCn1c(-c2cc(N3CCN(C)CC3)cnc2C(C)OC)c2c3cc(ccc31)-c1csc(n1)CC(NC(=O)C1CC1C)C(=O)N1CCCC(N1)C(=O)OCC(C)(C)C2 showed an IC50 (second compound 0.000949 µM) of 64 nM, an IC50 (second compound 0.003 µM) of 31.5 nM and an IC50 (second compound 0.00949 µM) of less than 3.16 nM. It also gave an IC50 (second compound 0.03 µM) of less than 3.16 nM, an IC50 (second compound 0.0949 µM) of less than 3.16 nM and an IC50 (second compound 0.3 µM) of less than 3.16 nM. The viability, T/C [1] was 92.7%, the viability, T/C [2] was 89.7% and the viability, T/C [3] was 83%. It also gave a viability, T/C [4] of 29.1%, a viability, T/C (second compound 0.000949 µM, first compound 0.316 µM) of 8.1% and a viability, T/C (second compound 0.000949 µM, first compound 1 µM) of 4.25%. It also gave a viability, T/C [5] of 114%, a viability, T/C [6] of 97.8% and a viability, T/C [7] of 47.8%. For the same compound, the viability, T/C [8] was 18.8%, the viability, T/C (second compound 0.003 µM, first compound 0.316 µM) was 6.27% and the viability, T/C (second compound 0.003 µM, first compound 1 µM) was 3.79%. For the same compound, the viability, T/C [9] was 43.6%, the viability, T/C [10] was 30.6% and the viability, T/C [11] was 13.6%. The viability, T/C [12] was 7.57%, the viability, T/C (second compound 0.00949 µM, first compound 0.316 µM) was 4.59% and the viability, T/C (second compound 0.00949 µM, first compound 1 µM) was 3.19%. The viability, T/C [13] was 14.9%, the viability, T/C [14] was 9.48% and the viability, T/C [15] was 6.73%. It also gave a viability, T/C [16] of 3.92%, a viability, T/C (second compound 0.03 µM, first compound 0.316 µM) of 3.2% and a viability, T/C (second compound 0.03 µM, first compound 1 µM) of 2.56%. It also gave a viability, T/C [17] of 6.07%, a viability, T/C [18] of 5.43% and a viability, T/C [19] of 4.04%. The viability, T/C [20] was 2.64%, the viability, T/C (second compound 0.0949 µM, first compound 0.316 µM) was 2.57% and the viability, T/C (second compound 0.0949 µM, first compound 1 µM) was 2.4%. For the same compound, the viability, T/C [21] was 5%, the viability, T/C [22] was 4.75% and the viability, T/C [23] was 2.99%. For the same compound, the viability, T/C [24] was 2.73%, the viability, T/C (second compound 0.3 µM, first compound 0.316 µM) was 2.91% and the viability, T/C (second compound 0.3 µM, first compound 1 µM) was 2.4%.
